# Laboratory results taken from ChEMBL document CHEMBL5046315, “CRCM5484: A BET-BDII Selective Compound with Differential Anti-leukemic Drug Modulation” (J Med Chem, 2022).
# Active and inactive are the calls of the source. No cut-off for these calls is given here.
# Key:
# U-937 [1] = assay: Potentiation of metformin -induced antileukemic activity against human U-937 cells at 4.3 uM in presence of bone-marrow derived stromal cell-conditioned medium; type: functional, cell-based
# [2] = test system: Acute myeloid leukemic cell; assay: Potentiation of birinapant-induced antileukemic activity against patient derived mouse xenografted acute myeloid leukemic cells assessed as cell viability in absence of bone-marrow derived stromal cell-conditioned medium measured after 72 to 144 hrs by cell-titre glo luminescent assay; type: functional, cell-based; settings: Homo sapiens, dose microM <=10, time lower […], time upper 144.0 hrs
# U-937 [3] = assay: Potentiation of bleomycine-induced antileukemic activity against human U-937 cells at 4.3 uM in presence of bone-marrow derived stromal cell-conditioned medium; type: functional, cell-based
# [4] = target: Bromodomain-containing protein 3 (Homo sapiens, UniProt Q15059); assay: Inhibition of BRD3-BD2 (unknown origin) assessed as dissociation constant by ITC method
# Bromodomain-containing protein 3, sequence (Q15059 whole entry): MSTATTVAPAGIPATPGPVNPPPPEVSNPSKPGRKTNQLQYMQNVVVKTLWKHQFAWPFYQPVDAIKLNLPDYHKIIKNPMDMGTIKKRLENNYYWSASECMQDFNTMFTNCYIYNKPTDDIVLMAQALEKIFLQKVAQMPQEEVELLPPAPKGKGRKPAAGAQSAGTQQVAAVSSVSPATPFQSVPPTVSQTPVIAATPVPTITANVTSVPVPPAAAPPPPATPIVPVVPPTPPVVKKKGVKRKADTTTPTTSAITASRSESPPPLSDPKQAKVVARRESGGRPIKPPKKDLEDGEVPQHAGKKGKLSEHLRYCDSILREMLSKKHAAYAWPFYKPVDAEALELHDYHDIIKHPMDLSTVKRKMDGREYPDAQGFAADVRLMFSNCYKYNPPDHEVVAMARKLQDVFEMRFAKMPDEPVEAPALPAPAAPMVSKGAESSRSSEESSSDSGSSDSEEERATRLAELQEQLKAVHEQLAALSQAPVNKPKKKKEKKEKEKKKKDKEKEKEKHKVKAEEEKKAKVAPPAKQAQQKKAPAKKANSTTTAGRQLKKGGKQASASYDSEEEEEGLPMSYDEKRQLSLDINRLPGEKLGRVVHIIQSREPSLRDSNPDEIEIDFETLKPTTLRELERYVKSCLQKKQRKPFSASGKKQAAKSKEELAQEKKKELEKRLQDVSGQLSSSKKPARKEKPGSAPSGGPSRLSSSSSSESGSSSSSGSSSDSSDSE
# U-937 [5] = assay: Potentiation of sorafenib-induced antileukemic activity against human U-937 cells at 4.3 uM in presence of bone-marrow derived stromal cell-conditioned medium; type: functional, cell-based
# CCRF-CEM [6] = assay: Potentiation of bleomycine-induced antileukemic activity against human CCRF-CEM cells at 4.3 uM in presence of bone-marrow derived stromal cell-conditioned medium; type: functional, cell-based
# U-937 [7] = assay: Potentiation of idasanutlin-induced antileukemic activity against human U-937 cells at 4.3 uM in presence of bone-marrow derived stromal cell-conditioned medium; type: functional, cell-based
# MOLM-14 [8] = assay: Potentiation of SGI-1776-induced antileukemic activity against human MOLM-14 cells at 4.3 uM in presence of bone-marrow derived stromal cell-conditioned medium; type: functional, cell-based
# MOLM-14 [9] = assay: Potentiation of SGI-1027-induced antileukemic activity against human MOLM-14 cells at 4.3 uM in presence of bone-marrow derived stromal cell-conditioned medium; type: functional, cell-based
# MOLM-14 [10] = assay: Potentiation of OTX015-induced antileukemic activity against human MOLM-14 cells at 4.3 uM in presence of bone-marrow derived stromal cell-conditioned medium; type: functional, cell-based
# U-937 [11] = assay: Potentiation of -mastinib -induced antileukemic activity against human U-937 cells at 4.3 uM in presence of bone-marrow derived stromal cell-conditioned medium; type: functional, cell-based
# MOLM-14 [12] = assay: Potentiation of bleomycine-induced antileukemic activity against human MOLM-14 cells at 4.3 uM in presence of bone-marrow derived stromal cell-conditioned medium; type: functional, cell-based
# CCRF-CEM [13] = assay: Potentiation of idelalisib-induced antileukemic activity against human CCRF-CEM cells at 4.3 uM in presence of bone-marrow derived stromal cell-conditioned medium; type: functional, cell-based
# U-937 [14] = assay: Potentiation of lapatinib-induced antileukemic activity against human U-937 cells at 4.3 uM in presence of bone-marrow derived stromal cell-conditioned medium; type: functional, cell-based
# MOLM-14 [15] = assay: Potentiation of BKM120-induced antileukemic activity against human MOLM-14 cells at 4.3 uM in presence of bone-marrow derived stromal cell-conditioned medium; type: functional, cell-based
# CCRF-CEM [16] = assay: Potentiation of AraC-induced antileukemic activity against human CCRF-CEM cells at 4.3 uM in presence of bone-marrow derived stromal cell-conditioned medium; type: functional, cell-based
# MOLM-14 [17] = assay: Potentiation of -nutlin 3-induced antileukemic activity against human MOLM-14 cells at 4.3 uM in presence of bone-marrow derived stromal cell-conditioned medium; type: functional, cell-based
# MOLM-14 [18] = assay: Potentiation of palbociclib-induced antileukemic activity against human MOLM-14 cells at 4.3 uM in presence of bone-marrow derived stromal cell-conditioned medium; type: functional, cell-based
# CCRF-CEM [19] = assay: Potentiation of tretinoin-induced antileukemic activity against human CCRF-CEM cells at 4.3 uM in presence of bone-marrow derived stromal cell-conditioned medium; type: functional, cell-based
# MOLM-14 [20] = assay: Potentiation of navitoclax-induced antileukemic activity against human MOLM-14 cells at 4.3 uM in presence of bone-marrow derived stromal cell-conditioned medium; type: functional, cell-based
# CCRF-CEM [21] = assay: Potentiation of SGI-110-induced antileukemic activity against human CCRF-CEM cells at 4.3 uM in presence of bone-marrow derived stromal cell-conditioned medium; type: functional, cell-based
# MOLM-14 [22] = assay: Potentiation of luminespid-induced antileukemic activity against human MOLM-14 cells at 4.3 uM in presence of bone-marrow derived stromal cell-conditioned medium; type: functional, cell-based
# U-937 [23] = assay: Potentiation of AC-4-130-induced antileukemic activity against human U-937 cells at 4.3 uM in presence of bone-marrow derived stromal cell-conditioned medium; type: functional, cell-based
# CCRF-CEM [24] = assay: Potentiation of sorafenib-induced antileukemic activity against human CCRF-CEM cells at 4.3 uM in presence of bone-marrow derived stromal cell-conditioned medium; type: functional, cell-based
# U-937 [25] = assay: Potentiation of imatinib-induced antileukemic activity against human U-937 cells at 4.3 uM in presence of bone-marrow derived stromal cell-conditioned medium; type: functional, cell-based
# MOLM-14 [26] = assay: Potentiation of panobinostat-induced antileukemic activity against human MOLM-14 cells at 4.3 uM in presence of bone-marrow derived stromal cell-conditioned medium; type: functional, cell-based
# U-937 [27] = assay: Potentiation of panobinostat-induced antileukemic activity against human U-937 cells at 4.3 uM in presence of bone-marrow derived stromal cell-conditioned medium; type: functional, cell-based
# CCRF-CEM [28] = assay: Potentiation of navitoclax-induced antileukemic activity against human CCRF-CEM cells at 4.3 uM in presence of bone-marrow derived stromal cell-conditioned medium; type: functional, cell-based
# MOLM-14 [29] = assay: Potentiation of birinapant-induced antileukemic activity against human MOLM-14 cells at 4.3 uM in presence of bone-marrow derived stromal cell-conditioned medium; type: functional, cell-based
# U-937 [30] = assay: Potentiation of navitoclax-induced antileukemic activity against human U-937 cells at 4.3 uM in presence of bone-marrow derived stromal cell-conditioned medium; type: functional, cell-based
# CCRF-CEM [31] = assay: Potentiation of metformin -induced antileukemic activity against human CCRF-CEM cells at 4.3 uM in presence of bone-marrow derived stromal cell-conditioned medium; type: functional, cell-based
# [32] = target: Bromodomain-containing protein 2 (Homo sapiens, UniProt P25440); assay: Inhibition of BRD2-BD2 (unknown origin) incubated for 6 hrs by HTRF method
# Bromodomain-containing protein 2, sequence (P25440 whole entry): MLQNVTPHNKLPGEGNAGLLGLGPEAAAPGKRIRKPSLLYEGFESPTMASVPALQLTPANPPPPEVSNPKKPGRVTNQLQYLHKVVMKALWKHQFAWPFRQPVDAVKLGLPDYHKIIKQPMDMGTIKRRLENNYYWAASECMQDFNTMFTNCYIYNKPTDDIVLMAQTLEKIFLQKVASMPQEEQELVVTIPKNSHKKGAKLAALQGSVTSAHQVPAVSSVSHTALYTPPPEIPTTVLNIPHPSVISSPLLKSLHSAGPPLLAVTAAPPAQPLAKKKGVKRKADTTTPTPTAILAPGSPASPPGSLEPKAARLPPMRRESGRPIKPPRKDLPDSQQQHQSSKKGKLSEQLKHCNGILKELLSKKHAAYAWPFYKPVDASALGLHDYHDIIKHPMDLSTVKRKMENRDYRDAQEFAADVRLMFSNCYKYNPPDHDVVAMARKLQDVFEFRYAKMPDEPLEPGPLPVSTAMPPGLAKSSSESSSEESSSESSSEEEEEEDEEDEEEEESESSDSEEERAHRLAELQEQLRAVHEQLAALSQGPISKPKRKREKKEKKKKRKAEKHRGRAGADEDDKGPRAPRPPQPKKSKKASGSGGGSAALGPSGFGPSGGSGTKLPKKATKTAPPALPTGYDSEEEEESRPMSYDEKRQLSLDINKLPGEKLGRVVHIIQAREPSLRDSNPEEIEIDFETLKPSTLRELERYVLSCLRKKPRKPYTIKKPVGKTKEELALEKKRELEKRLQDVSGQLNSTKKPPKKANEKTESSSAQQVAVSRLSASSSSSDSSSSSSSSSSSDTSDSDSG
# CCRF-CEM [33] = assay: Potentiation of olaparid-induced antileukemic activity against human CCRF-CEM cells at 4.3 uM in presence of bone-marrow derived stromal cell-conditioned medium; type: functional, cell-based
# MOLM-14 [34] = assay: Potentiation of midostaurin-induced antileukemic activity against human MOLM-14 cells at 4.3 uM in presence of bone-marrow derived stromal cell-conditioned medium; type: functional, cell-based
# MOLM-14 [35] = assay: Potentiation of idelalisib-induced antileukemic activity against human MOLM-14 cells at 4.3 uM in presence of bone-marrow derived stromal cell-conditioned medium; type: functional, cell-based
# CCRF-CEM [36] = assay: Potentiation of seliciclib-induced antileukemic activity against human CCRF-CEM cells at 4.3 uM in presence of bone-marrow derived stromal cell-conditioned medium; type: functional, cell-based
# U-937 [37] = assay: Potentiation of carfilzomib-induced antileukemic activity against human U-937 cells at 4.3 uM in presence of bone-marrow derived stromal cell-conditioned medium; type: functional, cell-based
# MOLM-14 [38] = assay: Potentiation of prima1-induced antileukemic activity against human MOLM-14 cells at 4.3 uM in presence of bone-marrow derived stromal cell-conditioned medium; type: functional, cell-based
# U-937 [39] = assay: Potentiation of cyclopamine-induced antileukemic activity against human U-937 cells at 4.3 uM in presence of bone-marrow derived stromal cell-conditioned medium; type: functional, cell-based
# U-937 [40] = assay: Potentiation of tipifarnib-induced antileukemic activity against human U-937 cells at 4.3 uM in presence of bone-marrow derived stromal cell-conditioned medium; type: functional, cell-based
# CCRF-CEM [41] = assay: Potentiation of everolimus-induced antileukemic activity against human CCRF-CEM cells at 4.3 uM in presence of bone-marrow derived stromal cell-conditioned medium; type: functional, cell-based
structure (smiles),measurement,setting,value
CC(=O)N1CCc2c(sc3nc(SCC(=O)Nc4cccnc4C)n(Cc4ccco4)c(=O)c23)C1,Activity,U-937 [1],inactive
same,Activity,[2],Dose-Dependent Effect
same,Activity,U-937 [3],inactive
same,Kd,[4],150 nM
same,Activity,U-937 [5],inactive
same,Activity,CCRF-CEM [6],inactive
same,Activity,U-937 [7],inactive
same,Activity,MOLM-14 [8],inactive
same,Activity,MOLM-14 [9],inactive
same,Activity,MOLM-14 [10],inactive
same,Activity,U-937 [11],inactive
same,Activity,MOLM-14 [12],inactive
same,Activity,CCRF-CEM [13],inactive
same,Activity,U-937 [14],inactive
same,Activity,MOLM-14 [15],inactive
same,Activity,CCRF-CEM [16],inactive
same,Activity,MOLM-14 [17],inactive
same,Activity,MOLM-14 [18],inactive
same,Activity,CCRF-CEM [19],inactive
same,Activity,MOLM-14 [20],inactive
same,Activity,CCRF-CEM [21],inactive
same,Activity,MOLM-14 [22],inactive
same,Activity,U-937 [23],inactive
same,Activity,CCRF-CEM [24],inactive
same,Activity,U-937 [25],inactive
same,Activity,MOLM-14 [26],inactive
same,Activity,U-937 [27],inactive
same,Activity,CCRF-CEM [28],inactive
same,Activity,MOLM-14 [29],inactive
same,Activity,U-937 [30],inactive
same,Activity,CCRF-CEM [31],inactive
same,IC50,[32],71 nM
same,Activity,CCRF-CEM [33],inactive
same,Activity,MOLM-14 [34],inactive
same,Activity,MOLM-14 [35],inactive
same,Activity,CCRF-CEM [36],inactive
same,Activity,U-937 [37],inactive
same,Activity,MOLM-14 [38],inactive
same,Activity,U-937 [39],inactive
same,Activity,U-937 [40],inactive
same,Activity,CCRF-CEM [41],inactive
